According to patent US20110207801A1, “Novel Genes, Compositions, and Methods for Modulating the Unfolded Protein Response” (University of Michigan, priority 2002, published 2011):

Experiments:
[1] = tested on: hsp-3; test: hsp-3 expression upon ER stress (Northern blot, quantitative Taqman RT-PCR); type: in vivo, C. elegans; conditions: wild-type 1.5 day-old L2 larvae, 4 hours
Procedure: (§1) For Northern analysis, mixed-stage nematodes grown in liquid culture were treated with 3 mM of DTT (Calbiochem) for up to 8 hours. Heat-shock treatment was performed at 30° C. for 1 hour. For single worm analysis, individual L2 larvae grown on plates were treated with 2.5 mM of DTT or 28 μg/ml of tunicamycin (Calbiochem) for 4 hours. To study survival to tunicamycin, gravid adults were allowed to lay eggs on plates containing tunicamycin (0 to 7.5 μg/ml) for 4 hours and then removed from the plates. Eggs were counted and studied 3 days later.
Total RNA preparation and Northern blot analysis was performed as described (Chen et al., 2000). The blot was hybridized sequentially with digoxigenin (DIG)-labeled DNA probes for hsp-3 and for 26S rRNA prepared with DIG-high prime labeling Kit (Roche).
Taqman RT-PCR was performed as described by Heid et al. (1996). The lack of DNA contamination in RNA preparations was confirmed by a 1000-fold decrease in quantitative PCR yield when reverse transcriptase was omitted. A unique sequence in the 3′UTR of act-1 and act-3 was amplified using Taqman PCR (primers act-F/act-R and act-probe). The primers (hsp-3-F/hsp-3-R) and the hsp-3-probe probe were used for detecting hsp-3 transcripts. The primers (hsp-4-F and hsp-4-R) and the hsp-4-probe probe were used for detecting hsp-4 transcripts. […]

[2] = tested on: hsp-4; test: hsp-4 expression upon ER stress (quantitative Taqman RT-PCR); type: in vivo, C. elegans; conditions: wild-type 1.5 day-old L2 larvae, 4 hours
Procedure: as §1
Taqman RT-PCR was performed as described by Heid et al. (1996). The lack of DNA contamination in RNA preparations was confirmed by a 1000-fold decrease in quantitative PCR yield when reverse transcriptase was omitted. A unique sequence in the 3′UTR of act-1 and act-3 was amplified using Taqman PCR (primers act-F/act-R and act-probe). The primers (hsp-3-F/hsp-3-R) and the hsp-3-probe probe were used for detecting hsp-3 transcripts. The primers (hsp-4-F and hsp-4-R) and the hsp-4-probe probe were used for detecting hsp-4 transcripts. The relative expression of hsp-3 and hsp-4 was normalized to the average signals of act-1/act-3.

[3] = tested on: C. elegans; test: survival to tunicamycin (eggs laid on plates, studied after 3 days); type: in vivo; conditions: for animals arrested at or prior to the L3 stage / animals matured to the L4 stage or older / dead animals: after 3 days
Text: Eggs from each strain were laid on plates containing different concentrations of tunicamycin, counted, and studied after 3 days. The number of eggs studied is listed above each column. The X-axis represents tunicamycin concentration. The total worm population was grouped into three fractions: animals that matured to L4 or older, animals that arrested at or prior to the L3 stage, and dead animals. Each fraction was plotted as the percentage of total eggs laid (Y-axis).
as §1

[4] = tested on: GRP94 mRNA; test: Northern blot analysis of GRP94 mRNA in MEFs; type: cell-based, mouse; conditions: 10 μg/ml, 6 hr
Procedure: (§2) FIGS. 12E and 12F depict a Northern blot analysis of wild-type and IRE1α-null MEFs. One blot was probed with [α-^32P]-labeled hamster BiP cDNA and β-actin cDNA (E) and another blot was probed with [α-^32P]-labeled mouse GRP94 DNA and β-actin cDNA (F).
(§3) Southern and Northern blot analysis followed standard procedures (Sambrook et al., 1989). [^32P]-labeled probes were prepared using a random prime labeling system (Amersham Pharmacia, Piscataway, N.J.). A 0.5-kb BamHI-XhoI fragment from the BS-mIRE1α targeting vector or a 3.6-kb EcoRI-XbaI fragment from pED-hIRE1α cDNA (Tirasophon et al., 2000) were used for Southern and Northern analysis, respectively. The probes for Northern analysis of mXbp1, BiP and GRP94 were a 0.94-kb XhoI fragment of pcDNA-mXbp1-u, the EcoRI-PstI fragment of hamster BiP (Ting et al., 1987), and a 146-bp PCR fragment of mouse GRP94 (from 142 to 287 of the coding region), respectively.

[5] = tested on: Xbp1 mRNA; test: Northern blot analysis of Xbp1 mRNA in MEFs; type: cell-based, mouse; conditions: 10 μg/ml, 6 hr
Procedure: FIG. 15F depicts a Northern blot analysis of Xbp1 mRNA in IRE1α-null MEFs. Wild-type and IRE1α-null MEFs were treated with or without 10 μg/ml tunicamycin for 6 hr prior to harvesting total RNA for Northern blot analysis. The blots were probed with [α-^32P]-labeled 0.94-kb XhoI fragment of XBP1-u and [β-actin cDNA.
as §3

[6] = tested on: BiP mRNA; test: Northern blot analysis of BiP mRNA in CHO cells; type: cell-based, Chinese hamster; conditions: 2 μg/ml, 16 hours
Procedure: (§4) FIG. 17E depicts a Northern blot analysis of BiP and Xbp1 mRNA in S2P-deficient cells. Wild-type and S2P-deficient CHO cells were treated with or without 2 μg/ml tunicamycin for 16 hours prior to harvesting total RNA for Northern blot analysis using hamster BiP, XBP1-u and β-actin cDNA as probes.
as §3

[7] = tested on: Xbp1 mRNA; test: Northern blot analysis of Xbp1 mRNA in CHO cells; type: cell-based, Chinese hamster; conditions: 2 μg/ml, 16 hours
Procedure: as §4, §3

[8] = tested on: BiP mRNA; test: Northern blot analysis of BiP mRNA in MEFs; type: cell-based, mouse; conditions: tunicamycin for 6 hr
Procedure: as §2, §3

[9] = tested on: IRE1; test: XBP1-EGFP reporter of IRE1 activation in COS-1 cells; type: cell-based, monkey; conditions: 10 ug/ml, after 8 and 16 hours
Text: (§5) COS-1 monkey cells were transfected by either diethylaminoethyl (DEAE)-dextran (Kaufman, 1997) or Calcium Phosphate-BES methods (Ausubel et al, 1999). Chinese hamster ovary (CHO) cells were transfected by either lipofectAMINE PLUS (Life Technology) or FuGENE6 (Roche). Murine embryonic fibroblasts (MEFs) were transfected by either FuGENE6 (Roche) or Effectine (QIAGEN). IRE1 activation was monitored by immunoprecipitation and western analysis.
(§6) XBP1 splicing was also monitored by RT-PCR analysis of RNAs using primers designed to amplify the region encompassing the overlap between open reading frame 1 (ORF1) and ORF2 within XBP1 mRNA (see Lee et al., Genes and Dev. 2002). XBP1 splicing may also be monitored by assessing the expression of a reporter gene that is regulated by splicing of the XBP1 intron. The coding region of EGFP, Luciferase or β-galactosidase was fused to the mouse XBP1 ORF1 downstream of the XBP1 intron. Transcription of the construct is under control of the constitutively expressed CMV promoter. Therefore, expression of the XBP1-EGFP, XBP1-Luciferase or XBP1-β-galactosidase fusion protein is regulated by splicing of the XBP1 intron.
(§7) At 48 hours after transfection, cells were treated with 10 ug/ml tunicamycin to inhibit N-linked glycosylation. […] Therefore, this construct is instrumental in monitoring IRE1 activation.

[10] = tested on: IRE1; test: XBP1-EGFP reporter of IRE1 activation in murine embryonic fibroblast cells; type: cell-based
Text: as §5, §6, §7

Compound: tunicamycin
- hsp-3 induction ([1]; tunicamycin 28 μg/ml): ~3.9 fold
- hsp-4 induction ([2]; tunicamycin 28 μg/ml): 29 fold
- animals arrested at or prior to the L3 stage ([3]; IRE1(v33) mutants, 2 μg/ml): 60%
- animals matured to the L4 stage or older ([3]; IRE1(v33) mutants, 2 μg/ml): 9%
- dead animals ([3]; IRE1(v33) mutants, 2 μg/ml): 31%
- animals arrested at or prior to the L3 stage ([3]; N2, 5 μg/ml): 29%
- animals matured to the L4 stage or older ([3]; N2, 5 μg/ml): 8%
- dead animals ([3]; N2, 5 μg/ml): 63%
- concentration at which growth of N2 animals was affected ([3]; N2, plates with 0 to 7.5 μg/ml): ≥ 5 µg/mL
- animals arrested at or prior to the L3 stage ([3]; PEK1(ok275) mutants, 2 μg/ml): 31%
- animals matured to the L4 stage or older ([3]; PEK1(ok275) mutants, 2 μg/ml): 35%
- dead animals ([3]; PEK1(ok275) mutants, 2 μg/ml): 34%
- GRP94 mRNA induction ([4]; IRE1α-null MEFs): 5.4 fold
- GRP94 mRNA induction ([4]; wild-type MEFs): 6.7 fold
- Xbp1 mRNA induction ([5]; IRE1α-null MEFs): 4.0 fold
- Xbp1 mRNA induction ([5]; wild-type MEFs): 3.1 fold
- BiP mRNA induction ([6]; S2P-deficient CHO cells): 2.6 fold
- BiP mRNA induction ([6]; wild-type CHO cells): 34 fold
- Xbp1 mRNA induction ([7]; S2P-deficient CHO cells): 2.9 fold
- Xbp1 mRNA induction ([7]; wild-type CHO cells): 3.1 fold
- reduction of BiP mRNA induction in IRE1α-null MEFs compared with wild-type [8]: 10%
- fluorescence of cells transfected with the XBP1-EGFP construct [9]: bright fluoresence
- fluorescence of cells expressing the XBP1-EGFP construct ([10]; control murine embryonic fibroblast cells): intense fluorescsence
- fluorescence of cells expressing the XBP1-EGFP construct ([10]; murine embryonic fibroblast cells deleted in both IRE1α alleles): no fluorescence was detected

Compound: O[C@H](CS)[C@H](O)CS (racemic) [DTT, dithiothreitol]
- hsp-3 induction ([1]; DTT 2.5 mM): ~9.3 fold
- hsp-4 induction ([2]; DTT 2.5 mM): 61 fold
